# From PMC6974524 (Frontiers in Microbiology, 2020)
# Several values for one entry are separate records, joined by “and”; a condition that tells them apart may be missing. Equal values may be shown once. Entries after “also recorded” stand apart in the source; their conditions may differ. Read-outs that look alike come from different tables or passages of the source.
# How the values were obtained:
# DdlA = DdlA (Mycobacterium tuberculosis, UniProt P9WP31); format: biochemical; conditions: for Kcat: Vmax divided by enzyme concentration
# Chain of DdlA (P9WP31 whole entry, looked up): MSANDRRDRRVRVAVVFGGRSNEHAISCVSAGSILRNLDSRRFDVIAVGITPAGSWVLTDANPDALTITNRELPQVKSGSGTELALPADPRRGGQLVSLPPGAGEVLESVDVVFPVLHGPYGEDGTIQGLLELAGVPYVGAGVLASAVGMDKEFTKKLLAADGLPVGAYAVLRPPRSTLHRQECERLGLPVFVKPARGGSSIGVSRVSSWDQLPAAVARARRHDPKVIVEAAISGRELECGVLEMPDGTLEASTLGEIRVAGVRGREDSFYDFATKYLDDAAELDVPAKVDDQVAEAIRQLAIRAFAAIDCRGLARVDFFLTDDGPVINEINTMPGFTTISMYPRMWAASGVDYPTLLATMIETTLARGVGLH
# Excerpt: The activity of DdlA was monitored by coupling with pyruvate kinase (PK) and lactate dehydrogenase (LDH; Sigma-Aldrich) to detect the release of ADP. […] The assay system was monitored via a Perkin Elmer EnSpire® 2300 Multimode Plate Reader (PerkinElmer, MA, United States) by detecting decreases in NADH.
# The calibration curve of the ultraviolet absorption of NADH at 340 nm to its concentrations was fabricated before studying the enzymatic kinetics of DdlA. The kinetic parameters of DldA were determined using serial twofold dilutions of one substrate (from 1 mM to 31.25 μM), while the other substrate was held constant at 1 mM. Km and Vmax values were calculated using non-linear regression of the Michaelis-Menten model in GraphPad Prism 5.0 (GraphPad Software, Inc., San Diego, CA, United States). Kcat was calculated based on the molecular weight of DdlA (42 kDa).
# [1] = system: Vero green-monkey kidney cells; assay: Cytotoxicity assay (MTT), Vero; conditions: Vero TC50 relative to H37Rv MIC
# HepG2 cells [2] = assay: Cytotoxicity assay (MTT), HepG2; conditions: for SI: HepG2 TC50 relative to H37Rv MIC
# clinical Mtb strains = assay: microbe, parasite or virus in culture; format: cell-based, Mycobacterium tuberculosis; conditions: for MIC: Mycobacterium tuberculosis
# Mtb H37Rv [3] = assay: microbe, parasite or virus in culture; format: cell-based, Mycobacterium tuberculosis; conditions: for MIC: Mycobacterium tuberculosis, 336 h
# Mtb DdlA = Mtb DdlA (Mycobacterium tuberculosis, UniProt P9WP31); assay: DdlA inhibition, PK/LDH-coupled assay detecting ADP release (NADH decrease); format: biochemical
# Chain of Mtb DdlA (P9WP31 whole entry, looked up): as above
# HepG2 cells [4] = system: HepG2 cells
# Mtb H37Rv [5] = assay: Mouse model of TB, pulmonary bacterial load; format: in vivo, Balb/c mice; conditions: 25 mg/kg by gavage, 15 administrations (five times per week); vehicle 5.58
# Excerpt: Specific pathogen-free (SPF) male Balb/c mice were purchased from the Institute of Laboratory Animal Sciences at the Chinese Academy of Medical Sciences and Peking Union Medical College. All animal experiments were supervised and approved by the Institutional Animal Care and Use Committee of the Institute of Medicinal Biotechnology. Twenty-six mice (6–8 weeks old, 18–20 g) were infected with Mtb H37Rv (about 100 CFU) via the 099C A4224 Inhalation Exposure System (Glas-col, Terre Haute, IN, United States). At 15 days after inoculum, two mice were anesthetized and decapitated to confirm the success of infection. DCS, INH, IMB-0283, and vehicle (0.5% CMC-Na) were administered through a gavage route (six mice per group). All chemicals were dosed at 25 mg/kg. Mice were sacrificed after 15 administrations (five times per week) to quantify pulmonary bacterial loads via counting CFUs.
# C[C@@H](N)C(=O)O = assay: purified protein, by the assay type; conditions: pH 8.0; 37.0 °C
# Mtb H37Rv [6] = assay: Morphology of Mtb by scanning electron microscopy; format: cell-based, Mycobacterium tuberculosis; conditions: 0.35 μg/mL
# [7] = system: Vero green-monkey kidney cells; conditions: 2 days
# [8] = substrate of DdlA, other substrate at 1 mM
# [9] = Mtb H37Rv, 2 weeks at 37°C, read-out: MIC
# [10] = Dixon plot, Figure 4 panels A, C, substrate ATP inferred, read-out: Ki for DdlA (ATP) (converted)
# [11] = Dixon plot, competing substrate ATP, read-out: Ki for DdlA (ATP) (converted)
compound,measurement,setting,value
Nc1ncnc2c1ncn2[C@@H]1O[C@H](COP(=O)(O)OP(=O)(O)OP(=O)(O)O)[C@@H](O)[C@H]1O [ATP],Kcat,DdlA,405.8 min^–1 and 383.00 ± 14.14 min^–1
same,Km,DdlA; [8],360 ± 30.5 µM
same,Vmax,DdlA; [8],20.29 μMmin^–1 and 19.15 ± 0.705 μMmin^–1
"N[C@@H]1CON=C1O [DCS, D-cycloserine, reference compound]",SI,[1],127.75
same,SI,HepG2 cells [2],86.25
same,MICs to several clinical strains,clinical Mtb strains; range over clinical strains,did not show any inhibitory effect
same,MIC,Mtb H37Rv [3]; [9],16 µg/mL
same,Ki,Mtb DdlA; [10],106 µM
same,Ki,Mtb DdlA; [11],107 µM
same,Ki,Mtb DdlA; Ki for DdlA (D-Ala),182 µM
same,SI index,HepG2 cells [4]; human (HepG2) and green monkey (Vero),about 80
same,Mtb load in mouse lungs,Mtb H37Rv [5],did not yield any such treatment efficacy; also recorded: did not yield any antibacterial activity; also recorded: showed no antibacterial activity
(Mycobacterium tuberculosis H37Rv),Vmax,C[C@@H](N)C(=O)O,28.4 µM/min
same,kcat,C[C@@H](N)C(=O)O,9.48 s⁻¹
"CO[C@H]1/C=C/O[C@@]2(C)Oc3c(C)c(O)c4c(O)c(c(/C=N/N5CCN(C)CC5)c(O)c4c3C2=O)NC(=O)/C(C)=C\C=C\[C@H](C)[C@H](O)[C@@H](C)[C@@H](O)[C@@H](C)[C@H](OC(C)=O)[C@@H]1C [RMP, rifampin]",MIC when combined with IMB-0283,Mtb H37Rv [3],0.016 µg/mL
same,MIC,Mtb H37Rv [3]; H37RV,0.063 µg/mL
"C[C@@H](N)C(=O)O [D-Ala, D-alanine]",Kcat,DdlA,568.79 ± 48.93 min^–1
same,Vmax,DdlA; [8],28.44 ± 2.444 μMmin^–1
OC1(c2ccc(OC(F)F)cc2)C[N+](c2ccccc2)=C2CCCCN21 (centres unmarked) [IMB-0283],SI,[1],499.6
same,SI,HepG2 cells [2],230.8
same,SI index,HepG2 cells [2]; cell line not specified (HepG2 and Vero),greater than 200
same,Morphology of Mtb,Mtb H37Rv [6]; 12 h,typical long-rod morphology
same,Morphology of Mtb,Mtb H37Rv [6]; 7 days,"shrunken, shorter, and fragmented"
same,TC50,[7],249.8 µg/mL
same,MIC,"clinical Mtb strains; range over clinical strains, read-out: MICs to several clinical strains",0.5 to 4 µg/mL
same,MIC,"clinical Mtb strains; strain FJ05060, S to INH, RMP, EMB, STR, CPM, KAN, OFX, read-out: MIC",0.5 µg/mL
same,MIC,"clinical Mtb strains; strain FJ05120, R to INH, RMP, read-out: MIC",2 µg/mL
same,MIC,"clinical Mtb strains; strain FJ05189, R to INH, RMP, read-out: MIC",1 µg/mL
same,MIC,"clinical Mtb strains; strain FJ05195, R to INH, RMP, EMB, STR, KAN, OFX, S to CPM, read-out: MIC",4 µg/mL
same,MIC,"clinical Mtb strains; strain FJ05349, S to INH, RMP, EMB, STR, CPM, KAN, OFX, read-out: MIC",0.5 µg/mL
same,MIC,"clinical Mtb strains; strain xz, R to INH, RMP, STR, CPM, OFX, S to EMB, KAN, read-out: MIC",4 µg/mL
same,MIC,Mtb H37Rv [3]; [9],0.5 µg/mL
same,Ki,Mtb DdlA; [10],5.43 µM
same,Ki,Mtb DdlA; [11],4.44 µM
same,Ki,Mtb DdlA; Ki for DdlA (D-Ala),32.6 µM and 39.9 µM
same,Inhibitory mode,Mtb DdlA; Lineweaver-Burk and Dixon plots,competed with both substrates of DdlA
same,IC50,Mtb DdlA; mean of n = 3,6.16 µM
same,IC50,Mtb DdlA; printed in Figure 3B,7.62 µM
same,TC50,"HepG2 cells [4]; human, 2 days",115.4 µg/mL
same,Mtb load in mouse lungs,Mtb H37Rv [5],4.40 log CFU/mL
"NNC(=O)c1ccncc1 [INH, isoniazid]",Reduction of MIC when combined with IMB-0283,"Mtb H37Rv [3]; H37Rv, IMB-0283 at 0.125 μg/mL",eightfold
same,MIC when combined with IMB-0283,"Mtb H37Rv [3]; H37Rv, IMB-0283 at 0.125 μg/mL (0.25 × MIC)",0.016 µg/mL
same,MIC,Mtb H37Rv [3]; [9],0.125 µg/mL
same,Mtb load in mouse lungs,Mtb H37Rv [5],3.29 log CFU/mL
